Data published in ChEMBL document CHEMBL3044747, “The antimycobacterial MICs, SARs, and QSARs of some ethnobotanically selected phytocompounds” (2013).
Converted amounts (≈) assume the structure as drawn.

Legend:
Format in all cases: functional
Settings in all cases: 672 h
[1] = tested on: Mycobacterium tuberculosis; experiment: Antimycobacterial activity against Mycobacterium tuberculosis H37Rv grown on Lowenstein-Jensen solid medium assessed as growth inhibition incubated with compound dissolved in DMSO measured after 4 weeks
[2] = tested on: Mycobacterium tuberculosis; experiment: Antimycobacterial activity against Mycobacterium tuberculosis H37Rv grown on Lowenstein-Jensen solid medium assessed as growth inhibition incubated with compound dissolved in water measured after 4 weeks
[3] = tested on: Mycobacterium tuberculosis; experiment: Antimycobacterial activity against Mycobacterium tuberculosis H37Rv grown on Lowenstein-Jensen solid medium assessed as growth inhibition incubated with compound dissolved in ethanol/methanol measured after 4 weeks
[4] = tested on: Mycobacterium tuberculosis; experiment: Antimycobacterial activity against Mycobacterium tuberculosis H37Rv grown in MGIT liquid medium assessed as growth inhibition measured after 4 weeks by BACTEC method
[5] = tested on: Mycobacterium tuberculosis; experiment: Antimycobacterial activity against MDR Mycobacterium tuberculosis grown in MGIT liquid medium assessed as growth inhibition measured after 4 weeks by BACTEC method
[6] = tested on: Mycobacterium tuberculosis; experiment: Antimycobacterial activity against Mycobacterium tuberculosis H37Rv grown on Lowenstein-Jensen solid medium assessed as growth inhibition measured after 4 weeks

COc1cc(O)c(C/C=C/c2ccccc2)c(O)c1OC
MIC [1]: 41 µg/mL (≈ 143 µM)
MIC [2]: 48.3 µg/mL (≈ 169 µM)

C=C1CC23CCC4[C@](O)(CO)C[C@@H](O)C[C@]4(C)C2CCC1C3 (stereo partly drawn)
MIC [1]: 37.6 µg/mL (≈ 123 µM)
MIC [2]: 66.8 µg/mL (≈ 218 µM)
MIC [3]: 39.7 µg/mL (≈ 130 µM)

CO[C@H]1/C=C/O[C@@]2(C)Oc3c(C)c(O)c4c(O)c(c(/C=N/N5CCN(C)CC5)c(O)c4c3C2=O)NC(=O)/C(C)=C\C=C\[C@H](C)[C@H](O)[C@@H](C)[C@@H](O)[C@@H](C)[C@H](OC(C)=O)[C@@H]1C [RIFAMPIN]
MIC [4]: 7.5 µg/mL (≈ 9.11 µM)
MIC [5]: 30 µg/mL (≈ 36.5 µM)
MIC [6]: 45.7 µg/mL (≈ 55.5 µM)

CCCC1=C(O)C(=O)C=C(O)C1=O
MIC [4]: 85 µg/mL (≈ 467 µM)
MIC [5]: 115 µg/mL (≈ 631 µM)

CN[C@@H]1[C@H](O[C@H]2[C@H](O[C@H]3[C@H](O)[C@@H](O)[C@H](N=C(N)N)[C@@H](O)[C@@H]3N=C(N)N)O[C@@H](C)[C@]2(O)C=O)O[C@@H](CO)[C@H](O)[C@H]1O [STREPTOMYCIN]
MIC [4]: 3.3 µg/mL (≈ 5.67 µM)
MIC [5]: 2.5 µg/mL (≈ 4.3 µM)
MIC [6]: 4.95 µg/mL (≈ 8.51 µM)

CC[C@@H](CO)NCCN[C@@H](CC)CO [ETHAMBUTOL]
MIC [4]: 2.5 µg/mL (≈ 12.2 µM)
MIC [5]: 15 µg/mL (≈ 73.4 µM)
MIC [6]: 2.65 µg/mL (≈ 13 µM)

CCC1=C(O)C(=O)C(CC)=C(O)C1=O
MIC [4]: 50 µg/mL (≈ 255 µM)
MIC [5]: 55 µg/mL (≈ 280 µM)

COc1ccc(-c2oc3cc(O)c(OC)c(O)c3c(=O)c2OC)cc1 [SANTIN]
MIC [1]: 59 µg/mL (≈ 171 µM)
MIC [2]: 51 µg/mL (≈ 148 µM)

CCCCCCCCCCCC1=C(O)C(=O)C=C(OC)C1=O [5-O-METHYLEMBELIN]
MIC [4]: 15 µg/mL (≈ 48.6 µM)
MIC [5]: 32.9 µg/mL (≈ 107 µM)

COc1cc(O)c(C/C=C/c2ccccc2)c(OC)c1
MIC [1]: 58.4 µg/mL (≈ 216 µM)
MIC [2]: 37.9 µg/mL (≈ 140 µM)

c1c2c(cc3c1C1CCN4CCC[C@@]56CCN3[C@@]1(CC5)C46)OCO2 (stereo partly drawn)
MIC [1]: 36.2 µg/mL (≈ 112 µM)
MIC [2]: 38.7 µg/mL (≈ 119 µM)

CCCCCC1=C(O)C(=O)C=C(O)C1=O
MIC [4]: 50 µg/mL (≈ 238 µM)
MIC [5]: 110 µg/mL (≈ 523 µM)

C[C@@H]1CCC2(CO)C(C(=O)O)=CCCC2[C@@]1(C)CCc1ccoc1 (stereo partly drawn)
MIC [1]: 37.4 µg/mL (≈ 113 µM)
MIC [2]: 36.7 µg/mL (≈ 110 µM)
MIC [3]: 31 µg/mL (≈ 93.2 µM)

CCCC/C=C/CCCCCCCCCC1=C(O)C(=O)C(C)=C(O)C1=O
MIC [1]: 41.3 µg/mL (≈ 114 µM)
MIC [2]: 40.9 µg/mL (≈ 113 µM)

CCCC/C=C/CCCCCCCCCCCCCC1=C(C(C)=O)C(=O)C(C)=C(OC(C)=O)C1=O
MIC [4]: 5 µg/mL (≈ 10.3 µM)
MIC [5]: 27.5 µg/mL (≈ 56.5 µM)

CCCCCCCCCCCC1=C(C(C)=O)C(=O)C=C(OC(C)=O)C1=O
MIC [4]: 42.5 µg/mL (≈ 117 µM)
MIC [5]: 50 µg/mL (≈ 138 µM)

COc1ccc(C2Oc3cc(O)c(OC)c(O)c3C(=O)C2OC)cc1 (stereo not drawn)
MIC [1]: 53 µg/mL (≈ 153 µM)
MIC [2]: 59.3 µg/mL (≈ 171 µM)

COc1cc(O)c2c(=O)c(O)c(-c3ccc(O)cc3)oc2c1 [RHAMNOCITRIN]
MIC [1]: 37.7 µg/mL (≈ 126 µM)
MIC [2]: 59.7 µg/mL (≈ 199 µM)
MIC [3]: 15.3 µg/mL (≈ 51 µM)

COc1cc(O)cc(O)c1C/C=C/c1ccccc1
MIC [1]: 49.7 µg/mL (≈ 194 µM)
MIC [2]: 53.7 µg/mL (≈ 210 µM)

COc1cc(-c2cc(=O)c3c(O)cc(O)cc3o2)c(OC)c(OC)c1OC
MIC [1]: 15 µg/mL (≈ 40.1 µM)
MIC [2]: 48 µg/mL (≈ 128 µM)
MIC [3]: 7.4 µg/mL (≈ 19.8 µM)

CCCC/C=C/CCCCCCCCCC1=C(O)C(=O)C=C(OC)C1=O
MIC [1]: 40.7 µg/mL (≈ 112 µM)
MIC [2]: 50 µg/mL (≈ 138 µM)

O=C1C[C@@H](c2ccccc2)Oc2cc(O)cc(O)c21 [PINOCEMBRIN]
MIC [1]: 73 µg/mL (≈ 285 µM)
MIC [2]: 63.3 µg/mL (≈ 247 µM)

NNC(=O)c1ccncc1 [ISONIAZID]
MIC [4]: 0.8 µg/mL (≈ 5.83 µM)
MIC [5]: 2.7 µg/mL (≈ 19.7 µM)
MIC [6]: 0.6 µg/mL (≈ 4.38 µM)

CCCCCCCCCC1=C(O)C(=O)C=C(O)C1=O
MIC [4]: 7.5 µg/mL (≈ 28.2 µM)
MIC [5]: 60 µg/mL (≈ 225 µM)

CCCCCCCC1=C(O)C(=O)C=C(O)C1=O
MIC [4]: 45 µg/mL (≈ 189 µM)
MIC [5]: 106 µg/mL (≈ 445 µM)

CCCC/C=C/CCCCCCCCCCCCCc1c(O)c(OC(C)=O)c(C)c(OC(C)=O)c1OC(C)=O
MIC [4]: 10 µg/mL (≈ 18.3 µM)
MIC [5]: 40 µg/mL (≈ 73.2 µM)

CCCCCCCCCCCCCCCC1=C(O)C(=O)C=C(O)C1=O
MIC [4]: 107 µg/mL (≈ 305 µM)
MIC [5]: 105 µg/mL (≈ 300 µM)

COc1cc(O)c(CCCc2ccccc2)c(O)c1OC
MIC [1]: 34.3 µg/mL (≈ 119 µM)
MIC [2]: 49.7 µg/mL (≈ 172 µM)

COc1ccc(-c2oc3cc(O)cc(O)c3c(=O)c2O)cc1 [KAEMPFERIDE]
MIC [1]: 32.7 µg/mL (≈ 109 µM)
MIC [2]: 26 µg/mL (≈ 86.6 µM)

CCCCCCCCCCCCCC1=C(O)C(=O)C=C(OC)C1=O [Sorgoleone-364]
MIC [4]: 60 µg/mL (≈ 178 µM)
MIC [5]: 70 µg/mL (≈ 208 µM)

CCCCCCCCCCCCCC1=C(O)C(=O)C=C(O)C1=O [Rapanone]
MIC [4]: 35 µg/mL (≈ 109 µM)
MIC [5]: 65 µg/mL (≈ 202 µM)

CC1=CC(=O)c2c(O)cccc2C1=O [PLUMBAGIN]
MIC [1]: 42.3 µg/mL (≈ 225 µM)
MIC [2]: 40.3 µg/mL (≈ 214 µM)

O=C1CCc2nccc3c4ccccc4n1c23
MIC [1]: 42 µg/mL (≈ 189 µM)
MIC [2]: 49.3 µg/mL (≈ 222 µM)
MIC [3]: 30 µg/mL (≈ 135 µM)

CC(=O)c1c(C)cc2cccc(O)c2c1O [NEPODIN]
MIC [1]: 40.3 µg/mL (≈ 186 µM)
MIC [2]: 84.7 µg/mL (≈ 392 µM)

CC(C)CCc1cc2c(cc1O)OCC1c3cc(O)cc(CCC(C)C)c3OC21 (stereo not drawn)
MIC [1]: 74.3 µg/mL (≈ 187 µM)
MIC [2]: 81.7 µg/mL (≈ 206 µM)

CCCCCCCCCCCC1=C(O)C(=O)C=C(O)C1=O [EMBELIN]
MIC [4]: 15 µg/mL (≈ 51 µM)
MIC [5]: 50 µg/mL (≈ 170 µM)
MIC [1]: 35.3 µg/mL (≈ 120 µM)
MIC [2]: 49 µg/mL (≈ 166 µM)
MIC [3]: 14.7 µg/mL (≈ 49.9 µM)

CCCCCCCCCCCC1=C(OC)C(=O)C=C(OC)C1=O
MIC [4]: 10 µg/mL (≈ 31 µM)
MIC [5]: 20 µg/mL (≈ 62 µM)

COc1cc2c(=O)c(-c3ccc4c(c3)OCO4)coc2c2c1OC(C)(C)CC2
MIC [1]: 74.7 µg/mL (≈ 196 µM)
MIC [2]: 37.9 µg/mL (≈ 99.6 µM)
MIC [3]: 40.3 µg/mL (≈ 106 µM)

Cc1cc(O)c2c(c1)C(=O)c1cc(O)cc(O)c1C2=O [EMODIN]
MIC [1]: 51.7 µg/mL (≈ 191 µM)
MIC [2]: 50.3 µg/mL (≈ 186 µM)

COc1ccc(-c2coc3cc(O)cc(O)c3c2=O)cc1C=O
MIC [1]: 37 µg/mL (≈ 118 µM)
MIC [2]: 36.3 µg/mL (≈ 116 µM)

CCC1=C(O)C(=O)C=C(O)C1=O
MIC [4]: 109 µg/mL (≈ 648 µM)
MIC [5]: 120 µg/mL (≈ 714 µM)
MIC [1]: 70 µg/mL (≈ 416 µM)
MIC [2]: 62.3 µg/mL (≈ 371 µM)

C[C@]12CC(=O)CC(CO)(CO)C1CC[C@@]13CC4[C@@H](CC12)[C@@]4(C)C3 (stereo partly drawn)
MIC [1]: 42.9 µg/mL (≈ 135 µM)
MIC [2]: 23.3 µg/mL (≈ 73.2 µM)
MIC [3]: 42.3 µg/mL (≈ 133 µM)

COc1ccc2c(c1OC)C=NC1C2CCC2CC3OCOC3CC21.Cl (stereo not drawn)
MIC [1]: 31.3 µg/mL
MIC [2]: 50.3 µg/mL
MIC [3]: 16 µg/mL
